Source: the kinase profiling compilation of Christmann-Franck et al. (2016)

Tests used:
Experiment in all cases: radiometric filter-binding kinase assay, Kinase HotSpot
Settings in all cases: compound 0.5 µM; ATP 10 µM
EPHA2 (human) = EPHA2 (human) (UniProt P29317)
CSNK2A1 (human) = CSNK2A1 (human) (UniProt P68400)
MAP3K3 (human) = MAP3K3 (human) (UniProt Q99759)
MET (human) = MET (human) (UniProt P08581)
ALK (human) = ALK (human) (UniProt Q9UM73)
DYRK1B (human) = DYRK1B (human) (UniProt Q9Y463)
Sequence of DYRK1B (human) (Q9Y463 whole entry, looked up): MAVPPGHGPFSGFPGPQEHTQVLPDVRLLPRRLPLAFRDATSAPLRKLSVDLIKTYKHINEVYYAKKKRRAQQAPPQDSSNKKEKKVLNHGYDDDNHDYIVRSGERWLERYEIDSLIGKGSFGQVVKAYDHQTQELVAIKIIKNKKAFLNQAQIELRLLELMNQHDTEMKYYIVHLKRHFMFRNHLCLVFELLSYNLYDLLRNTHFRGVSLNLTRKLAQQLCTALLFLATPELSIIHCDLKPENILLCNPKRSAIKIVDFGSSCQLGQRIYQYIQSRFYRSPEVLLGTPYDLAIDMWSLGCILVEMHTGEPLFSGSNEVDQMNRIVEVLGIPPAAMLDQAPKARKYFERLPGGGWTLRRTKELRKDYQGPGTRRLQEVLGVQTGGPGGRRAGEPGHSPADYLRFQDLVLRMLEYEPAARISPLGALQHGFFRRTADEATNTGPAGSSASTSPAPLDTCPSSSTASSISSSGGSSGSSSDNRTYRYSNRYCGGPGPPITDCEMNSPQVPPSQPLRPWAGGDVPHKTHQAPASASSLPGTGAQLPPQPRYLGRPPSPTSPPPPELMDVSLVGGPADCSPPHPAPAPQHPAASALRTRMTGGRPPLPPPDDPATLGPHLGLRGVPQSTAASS

PIM1 (human) = PIM1 (human) (UniProt P11309)
MAP4K5 (human) = MAP4K5 (human) (UniProt Q9Y4K4)
PRKD1 (human) = PRKD1 (human) (UniProt Q15139)
MAPK12 (human) = MAPK12 (human) (UniProt P53778)
MAPK11 (human) = MAPK11 (human) (UniProt Q15759)
CDC42BPB (human) = CDC42BPB (human) (UniProt Q9Y5S2)
CSNK1G1 (human) = CSNK1G1 (human) (UniProt Q9HCP0)
CHEK2 (human) = CHEK2 (human) (UniProt O96017)
PRKCB1 (human) = PRKCB1 (human) (UniProt P05771)
MAP3K8 (human) = MAP3K8 (human) (UniProt P41279)
TXK (human) = TXK (human) (UniProt P42681)
RPS6KA1 KD1 KD2 (human) = RPS6KA1 KD1 KD2 (human) (UniProt Q15418)
PRKACG (human) = PRKACG (human) (UniProt P22612)
SGK2 (human) = SGK2 (human) (UniProt Q9HBY8)
DCLK2 (human) = DCLK2 (human) (UniProt Q8N568)
ACVRL1 (human) = ACVRL1 (human) (UniProt P37023)
FGFR4 (human) = FGFR4 (human) (UniProt P22455)
RPS6KA2 KD1 KD2 (human) = RPS6KA2 KD1 KD2 (human) (UniProt Q15349)
TNK2 (human) = TNK2 (human) (UniProt Q07912)
TEK (human) = TEK (human) (UniProt Q02763)
PAK2 (human) = PAK2 (human) (UniProt Q13177)
PRKX (human) = PRKX (human) (UniProt P51817)
STK17A (human) = STK17A (human) (UniProt Q9UEE5)
HIPK4 (human) = HIPK4 (human) (UniProt Q8NE63)
AKT1 (human) = AKT1 (human) (UniProt P31749)
Sequence of AKT1 (human) (P31749 whole entry, looked up): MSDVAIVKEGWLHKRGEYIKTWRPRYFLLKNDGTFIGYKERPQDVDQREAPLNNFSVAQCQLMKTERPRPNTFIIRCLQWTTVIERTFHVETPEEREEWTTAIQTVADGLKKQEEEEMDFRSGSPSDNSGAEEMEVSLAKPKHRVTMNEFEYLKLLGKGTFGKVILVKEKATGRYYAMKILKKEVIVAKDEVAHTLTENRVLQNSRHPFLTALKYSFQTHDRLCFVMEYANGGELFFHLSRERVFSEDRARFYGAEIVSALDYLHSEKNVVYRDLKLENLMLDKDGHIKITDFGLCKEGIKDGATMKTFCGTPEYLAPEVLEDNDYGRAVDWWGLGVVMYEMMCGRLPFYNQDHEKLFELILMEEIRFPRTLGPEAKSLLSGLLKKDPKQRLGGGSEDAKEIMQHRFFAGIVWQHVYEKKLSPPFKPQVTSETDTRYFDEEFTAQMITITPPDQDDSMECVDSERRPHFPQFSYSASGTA

CAMK1 (human) = CAMK1 (human) (UniProt Q14012)
ULK2 (human) = ULK2 (human) (UniProt Q8IYT8)
PHKG2 (human) = PHKG2 (human) (UniProt P15735)
NLK (human) = NLK (human) (UniProt Q9UBE8)
Sequence of NLK (human) (Q9UBE8 whole entry, looked up): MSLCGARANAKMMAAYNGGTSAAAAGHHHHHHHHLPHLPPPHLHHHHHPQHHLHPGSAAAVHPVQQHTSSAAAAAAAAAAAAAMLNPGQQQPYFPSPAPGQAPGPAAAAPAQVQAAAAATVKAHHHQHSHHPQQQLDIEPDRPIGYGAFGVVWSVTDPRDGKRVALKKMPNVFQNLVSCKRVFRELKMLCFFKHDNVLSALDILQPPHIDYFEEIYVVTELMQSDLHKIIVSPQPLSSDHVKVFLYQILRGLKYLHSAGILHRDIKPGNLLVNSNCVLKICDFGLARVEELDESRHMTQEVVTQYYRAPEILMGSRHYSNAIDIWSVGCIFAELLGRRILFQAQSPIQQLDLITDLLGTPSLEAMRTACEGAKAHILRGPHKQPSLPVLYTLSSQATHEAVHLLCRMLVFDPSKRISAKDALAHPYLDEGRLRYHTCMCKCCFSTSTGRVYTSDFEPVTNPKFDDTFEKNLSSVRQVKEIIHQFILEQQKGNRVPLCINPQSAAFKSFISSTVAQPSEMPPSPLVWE

EPHA4 (human) = EPHA4 (human) (UniProt P54764)
Sequence of EPHA4 (human) (P54764 whole entry, looked up): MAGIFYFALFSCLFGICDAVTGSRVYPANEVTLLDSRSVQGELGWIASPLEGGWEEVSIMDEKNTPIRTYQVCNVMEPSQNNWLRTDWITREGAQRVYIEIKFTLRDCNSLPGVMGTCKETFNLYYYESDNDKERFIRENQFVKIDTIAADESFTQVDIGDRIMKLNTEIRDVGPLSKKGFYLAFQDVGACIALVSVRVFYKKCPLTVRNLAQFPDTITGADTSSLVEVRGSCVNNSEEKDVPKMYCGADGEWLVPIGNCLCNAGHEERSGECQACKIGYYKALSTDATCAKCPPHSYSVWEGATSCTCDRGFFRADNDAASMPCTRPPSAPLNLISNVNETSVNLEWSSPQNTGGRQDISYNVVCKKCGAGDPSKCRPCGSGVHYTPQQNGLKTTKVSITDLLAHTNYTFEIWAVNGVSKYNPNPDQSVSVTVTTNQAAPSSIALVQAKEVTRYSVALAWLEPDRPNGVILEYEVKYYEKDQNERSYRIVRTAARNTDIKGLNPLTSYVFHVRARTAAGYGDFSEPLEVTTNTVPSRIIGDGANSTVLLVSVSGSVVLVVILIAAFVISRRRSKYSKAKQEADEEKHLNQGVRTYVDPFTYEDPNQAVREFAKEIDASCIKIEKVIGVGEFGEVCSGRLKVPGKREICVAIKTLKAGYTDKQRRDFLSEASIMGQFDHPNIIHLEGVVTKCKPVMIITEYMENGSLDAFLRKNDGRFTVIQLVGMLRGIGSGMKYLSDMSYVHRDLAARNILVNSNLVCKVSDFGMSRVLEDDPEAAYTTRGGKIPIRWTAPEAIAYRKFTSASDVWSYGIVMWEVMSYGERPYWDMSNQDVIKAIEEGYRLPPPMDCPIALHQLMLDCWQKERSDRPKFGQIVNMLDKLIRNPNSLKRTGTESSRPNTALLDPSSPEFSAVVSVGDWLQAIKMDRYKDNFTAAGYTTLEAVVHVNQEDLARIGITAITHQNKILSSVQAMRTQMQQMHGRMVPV

[1] = target: JAK1 JH1 catalytic (human) (UniProt P23458)
CAMK4 (human) = CAMK4 (human) (UniProt Q16566)
Sequence of CAMK4 (human) (Q16566 whole entry, looked up): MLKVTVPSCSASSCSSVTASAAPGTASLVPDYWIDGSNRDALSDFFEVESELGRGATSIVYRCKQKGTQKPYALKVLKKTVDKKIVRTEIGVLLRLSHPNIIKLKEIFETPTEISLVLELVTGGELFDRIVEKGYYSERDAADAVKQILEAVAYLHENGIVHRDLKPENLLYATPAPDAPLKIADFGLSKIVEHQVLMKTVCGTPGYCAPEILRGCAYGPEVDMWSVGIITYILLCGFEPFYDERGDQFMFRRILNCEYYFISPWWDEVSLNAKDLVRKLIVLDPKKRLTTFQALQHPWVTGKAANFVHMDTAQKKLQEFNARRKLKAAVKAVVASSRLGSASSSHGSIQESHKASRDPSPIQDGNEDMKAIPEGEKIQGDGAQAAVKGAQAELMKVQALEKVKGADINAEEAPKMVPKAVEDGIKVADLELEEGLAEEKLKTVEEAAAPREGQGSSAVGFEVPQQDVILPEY

RPS6KA5 KD2 (human) = RPS6KA5 KD2 (human) (UniProt O75582)
CDK2 CCNA2 (human) = CDK2 CCNA2 (human) (UniProt P24941+P20248)
DYRK3 (human) = DYRK3 (human) (UniProt O43781)

Sequence of MET (human) (P08581 whole entry, looked up): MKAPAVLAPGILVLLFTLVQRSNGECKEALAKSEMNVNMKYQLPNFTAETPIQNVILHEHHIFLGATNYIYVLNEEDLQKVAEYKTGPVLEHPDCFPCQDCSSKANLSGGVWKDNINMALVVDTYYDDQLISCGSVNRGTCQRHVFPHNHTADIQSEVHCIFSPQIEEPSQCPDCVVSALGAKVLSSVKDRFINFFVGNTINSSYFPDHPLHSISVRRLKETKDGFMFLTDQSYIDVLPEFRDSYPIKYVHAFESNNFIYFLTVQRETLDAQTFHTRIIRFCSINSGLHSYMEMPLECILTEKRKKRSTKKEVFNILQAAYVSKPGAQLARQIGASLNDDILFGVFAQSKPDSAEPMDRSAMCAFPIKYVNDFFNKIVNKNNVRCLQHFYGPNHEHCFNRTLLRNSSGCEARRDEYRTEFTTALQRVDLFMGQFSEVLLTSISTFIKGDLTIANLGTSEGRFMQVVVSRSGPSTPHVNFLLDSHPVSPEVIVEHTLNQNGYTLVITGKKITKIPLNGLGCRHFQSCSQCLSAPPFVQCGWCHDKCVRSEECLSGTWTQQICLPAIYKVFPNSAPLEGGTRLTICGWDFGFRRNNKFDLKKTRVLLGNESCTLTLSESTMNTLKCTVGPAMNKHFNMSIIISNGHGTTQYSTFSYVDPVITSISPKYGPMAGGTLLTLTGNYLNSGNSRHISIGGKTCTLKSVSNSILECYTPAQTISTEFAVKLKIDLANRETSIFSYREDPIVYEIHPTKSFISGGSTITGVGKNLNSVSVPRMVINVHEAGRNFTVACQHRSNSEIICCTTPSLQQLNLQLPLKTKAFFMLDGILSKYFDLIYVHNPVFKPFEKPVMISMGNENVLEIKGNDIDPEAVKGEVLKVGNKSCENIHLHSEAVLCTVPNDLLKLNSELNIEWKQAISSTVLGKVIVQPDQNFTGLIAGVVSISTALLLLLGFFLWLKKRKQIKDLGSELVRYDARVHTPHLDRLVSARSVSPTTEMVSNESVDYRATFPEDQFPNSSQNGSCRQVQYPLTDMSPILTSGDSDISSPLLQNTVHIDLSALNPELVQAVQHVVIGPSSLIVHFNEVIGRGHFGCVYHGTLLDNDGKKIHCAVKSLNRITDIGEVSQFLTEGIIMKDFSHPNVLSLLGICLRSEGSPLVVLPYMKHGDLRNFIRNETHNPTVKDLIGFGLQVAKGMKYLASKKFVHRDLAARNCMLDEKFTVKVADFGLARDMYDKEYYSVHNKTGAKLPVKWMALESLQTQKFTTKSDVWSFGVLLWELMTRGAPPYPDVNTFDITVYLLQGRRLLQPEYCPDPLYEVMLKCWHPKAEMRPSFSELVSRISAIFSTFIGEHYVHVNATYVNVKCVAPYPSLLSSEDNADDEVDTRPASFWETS
Sequence of CSNK2A1 (human) (P68400 whole entry, looked up): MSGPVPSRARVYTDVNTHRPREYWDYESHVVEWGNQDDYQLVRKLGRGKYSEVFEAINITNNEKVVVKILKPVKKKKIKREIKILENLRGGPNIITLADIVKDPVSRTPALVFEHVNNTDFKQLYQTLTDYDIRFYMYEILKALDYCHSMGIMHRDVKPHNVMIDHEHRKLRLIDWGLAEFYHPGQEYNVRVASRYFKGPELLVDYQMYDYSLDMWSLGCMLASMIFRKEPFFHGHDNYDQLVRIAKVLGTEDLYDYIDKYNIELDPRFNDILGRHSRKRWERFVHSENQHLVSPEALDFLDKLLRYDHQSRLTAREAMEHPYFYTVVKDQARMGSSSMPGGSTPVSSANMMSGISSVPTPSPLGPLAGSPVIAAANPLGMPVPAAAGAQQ

Cc1[nH]c(/C=C2\C(=O)Nc3ccc(S(=O)(=O)N(C)c4cccc(Cl)c4)cc32)c(C)c1C(=O)N1CCN(C)CC1
residual activity (EPHA2 (human)): 97.8% | residual activity (CSNK2A1 (human)): 78.8% | residual activity (MAP3K3 (human)): 63.6% | residual activity (MET (human)): 1.18% | residual activity (ALK (human)): 77.7% | residual activity (DYRK1B (human)): 98.9% | residual activity (PIM1 (human)): 103% | residual activity (MAP4K5 (human)): 5.06% | residual activity (PRKD1 (human)): 61.8% | residual activity (MAPK12 (human)): 99.8% | residual activity (MAPK11 (human)): 103% | residual activity (CDC42BPB (human)): 113% | residual activity (CSNK1G1 (human)): 104% | residual activity (CHEK2 (human)): 85.1% | residual activity (PRKCB1 (human)): 94% | residual activity (MAP3K8 (human)): 82.9% | residual activity (TXK (human)): 102% | residual activity (RPS6KA1 KD1 KD2 (human)): 54.4% | residual activity (PRKACG (human)): 111% | residual activity (SGK2 (human)): 103% | residual activity (DCLK2 (human)): 90.4% | residual activity (ACVRL1 (human)): 103% | residual activity (FGFR4 (human)): 104% | residual activity (RPS6KA2 KD1 KD2 (human)): 75.4% | residual activity (TNK2 (human)): 65.4% | residual activity (TEK (human)): 90.8% | residual activity (PAK2 (human)): 96.2% | residual activity (PRKX (human)): 104% | residual activity (STK17A (human)): 97% | residual activity (HIPK4 (human)): 103% | residual activity (AKT1 (human)): 98.8% | residual activity (CAMK1 (human)): 95.8% | residual activity (ULK2 (human)): 16.8% | residual activity (PHKG2 (human)): 96% | residual activity (NLK (human)): 106% | residual activity (EPHA4 (human)): 80.7% | residual activity [1]: 68% | residual activity (CAMK4 (human)): 96.2% | residual activity (RPS6KA5 KD2 (human)): 94.1% | residual activity (CDK2 CCNA2 (human)): 103%

c1ccc(-c2n[nH]cc2-c2ccnc3ccccc23)nc1
residual activity (EPHA2 (human)): 103% | residual activity (CSNK2A1 (human)): 96.3% | residual activity (MAP3K3 (human)): 79.4% | residual activity (MET (human)): 94.1% | residual activity (ALK (human)): 111% | residual activity (DYRK1B (human)): 102% | residual activity (PIM1 (human)): 107% | residual activity (MAP4K5 (human)): 87.4% | residual activity (PRKD1 (human)): 63% | residual activity (MAPK12 (human)): 106% | residual activity (MAPK11 (human)): 106% | residual activity (CDC42BPB (human)): 102% | residual activity (CSNK1G1 (human)): 92.2% | residual activity (CHEK2 (human)): 96.6% | residual activity (PRKCB1 (human)): 102% | residual activity (MAP3K8 (human)): 91.1% | residual activity (TXK (human)): 89.1% | residual activity (RPS6KA1 KD1 KD2 (human)): 88.1% | residual activity (PRKACG (human)): 92.9% | residual activity (SGK2 (human)): 101% | residual activity (DCLK2 (human)): 97.4% | residual activity (ACVRL1 (human)): 102% | residual activity (FGFR4 (human)): 80.6% | residual activity (RPS6KA2 KD1 KD2 (human)): 96.3% | residual activity (DYRK3 (human)): 104% | residual activity (TNK2 (human)): 96.2% | residual activity (TEK (human)): 98.8% | residual activity (PAK2 (human)): 57% | residual activity (PRKX (human)): 102% | residual activity (STK17A (human)): 117% | residual activity (HIPK4 (human)): 89.9% | residual activity (AKT1 (human)): 100% | residual activity (CAMK1 (human)): 96.1% | residual activity (ULK2 (human)): 95.6% | residual activity (PHKG2 (human)): 97.7% | residual activity (NLK (human)): 79.8% | residual activity (EPHA4 (human)): 98% | residual activity [1]: 96.7% | residual activity (CAMK4 (human)): 97.5% | residual activity (RPS6KA5 KD2 (human)): 102% | residual activity (CDK2 CCNA2 (human)): 98.7%
